Assay results reported in ChEMBL document CHEMBL4765391, “Design, synthesis, and Structure-Activity Relationships (SAR) of 3-vinylindazole derivatives as new selective tropomyosin receptor kinases (Trk) inhibitors” (Eur J Med Chem, 2020).
Activity calls are given as the source filed them. The rule behind the calls is not given here.

Legend:
[1] = molecular target: Phosphorylase b kinase gamma catalytic chain, skeletal muscle/heart isoform (Homo sapiens, UniProt Q16816); experiment: Binding affinity to wild-type human full length PHKG1 (M1 to Y387 residues) expressed in bacterial expression system by Kinomescan method relative to control
Phosphorylase b kinase gamma catalytic chain, skeletal muscle/heart isoform, sequence (Q16816 whole entry, the tested form may be a part, canonical isoform): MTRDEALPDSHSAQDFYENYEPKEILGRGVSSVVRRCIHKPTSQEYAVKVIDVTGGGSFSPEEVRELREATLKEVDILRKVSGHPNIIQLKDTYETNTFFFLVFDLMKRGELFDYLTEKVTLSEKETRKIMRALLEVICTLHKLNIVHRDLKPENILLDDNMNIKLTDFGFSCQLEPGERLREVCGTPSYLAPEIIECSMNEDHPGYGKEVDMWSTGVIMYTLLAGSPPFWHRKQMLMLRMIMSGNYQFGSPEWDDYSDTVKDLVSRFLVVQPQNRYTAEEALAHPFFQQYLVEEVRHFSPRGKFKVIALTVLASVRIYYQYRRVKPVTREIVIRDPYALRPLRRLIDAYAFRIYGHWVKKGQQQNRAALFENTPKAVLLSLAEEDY

[2] = AUC (0 to infinity) in Sprague-Dawley rat at 10 mg/kg, po measured after 24 hrs by LC-MS/MS analysis; format: ADME, organism-based; design: route oral, dose 10 mg/kg, time 24 hrs; conditions: in vivo
[3] = molecular target: T1, BDNF/NT-3 growth factors receptor (Homo sapiens, UniProt Q16620); conditions: BaF3, dose 0.3-200 nM, time 6.0 hrs
T1 sequence (Q16620 32-822 limits assumed): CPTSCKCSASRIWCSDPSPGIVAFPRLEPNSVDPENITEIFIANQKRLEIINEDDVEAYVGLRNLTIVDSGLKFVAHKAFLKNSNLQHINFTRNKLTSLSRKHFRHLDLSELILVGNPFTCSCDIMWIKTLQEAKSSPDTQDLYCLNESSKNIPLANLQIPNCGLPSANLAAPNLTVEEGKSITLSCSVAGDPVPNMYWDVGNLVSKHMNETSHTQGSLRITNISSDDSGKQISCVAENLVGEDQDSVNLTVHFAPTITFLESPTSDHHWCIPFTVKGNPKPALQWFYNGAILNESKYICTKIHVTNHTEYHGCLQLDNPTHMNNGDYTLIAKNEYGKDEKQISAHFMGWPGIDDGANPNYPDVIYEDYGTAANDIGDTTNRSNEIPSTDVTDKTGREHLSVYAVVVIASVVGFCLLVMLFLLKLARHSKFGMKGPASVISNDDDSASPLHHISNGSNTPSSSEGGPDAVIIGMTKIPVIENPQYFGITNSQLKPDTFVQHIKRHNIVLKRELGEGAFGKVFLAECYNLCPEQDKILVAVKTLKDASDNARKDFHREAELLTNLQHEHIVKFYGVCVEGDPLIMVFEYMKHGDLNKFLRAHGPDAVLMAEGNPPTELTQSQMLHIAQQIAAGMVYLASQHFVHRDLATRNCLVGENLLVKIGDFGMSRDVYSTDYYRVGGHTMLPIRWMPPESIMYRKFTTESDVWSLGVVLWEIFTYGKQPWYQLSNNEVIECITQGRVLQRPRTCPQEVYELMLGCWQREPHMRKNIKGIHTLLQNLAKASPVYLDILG

BaF3 [4] = experiment: Antiproliferative activity against mouse BaF3 cells transfected with wild type ETV6-NTRK2 (unknown origin) harbouring G639R mutation assessed as cell viability measured after 72 hrs by Micro plate reader method; format: functional, cell-based; conditions: BaF3, 72 h
BaF3 [5] = experiment: Antiproliferative activity against mouse BaF3 cells transfected with wild type ETV6-NTRK2 (unknown origin) assessed as cell viability measured after 72 hrs by Micro plate reader method; conditions: BaF3, 72 h
[6] = molecular target: T1, BDNF/NT-3 growth factors receptor; conditions: BaF3, dose 0.3-200 nM, time 6.0 hrs; remark: listed apart in the source
[7] = molecular target: Fibroblast growth factor receptor 1 (Homo sapiens, UniProt P11362); experiment: Binding affinity to wild-type human partial length FGFR1 (P357 to V669 residues) expressed in bacterial expression system by Kinomescan method relative to control
[8] = Half life in Sprague-Dawley rat at 10 mg/kg, po measured after 24 hrs by LC-MS/MS analysis; format: ADME, organism-based; conditions: in vivo
[9] = test system: Receptor-type tyrosine-protein kinase FLT3 (Homo sapiens), P36888 [D835H]; experiment: Binding affinity to FLT3 D835H mutant (unknown origin)
[10] = molecular target: NUAK family SNF1-like kinase 1 (Homo sapiens, UniProt O60285); experiment: Binding affinity to wild-type human partial length ARK5 (E25 to I332 residues) expressed in bacterial expression system by Kinomescan method relative to control
Aurora kinase C = Aurora kinase C (Homo sapiens, UniProt Q9UQB9); experiment: Binding affinity to wild-type human full length AURKC (M1 to S275 residues) expressed in bacterial expression system by Kinomescan method relative to control
Aurora kinase C, sequence (Q9UQB9 whole entry, the tested form may be a part): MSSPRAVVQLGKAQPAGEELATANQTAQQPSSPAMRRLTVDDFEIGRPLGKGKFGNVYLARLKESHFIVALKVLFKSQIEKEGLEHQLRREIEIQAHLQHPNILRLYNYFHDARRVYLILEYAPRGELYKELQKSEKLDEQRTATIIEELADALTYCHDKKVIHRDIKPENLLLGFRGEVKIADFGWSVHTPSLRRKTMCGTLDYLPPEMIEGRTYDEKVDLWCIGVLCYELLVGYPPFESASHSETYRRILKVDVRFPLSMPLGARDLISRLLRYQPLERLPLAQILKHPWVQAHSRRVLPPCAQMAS

BaF3 [11] = experiment: Antiproliferative activity against mouse BaF3 cells assessed as cell viability measured after 72 hrs by Micro plate reader method; format: functional, cell-based; conditions: BaF3, 72 h
[12] = test system: Receptor-type tyrosine-protein kinase FLT3 (Homo sapiens), P36888 [N841I]; experiment: Binding affinity to FLT3 N841I mutant (unknown origin)
[13] = molecular target: Tyrosine-protein kinase JAK3 (Homo sapiens, UniProt P52333); experiment: Binding affinity to wild-type human partial length JAK3 JH1 catalytic domain (I781 to S1124 residues) expressed in mammalian expression system by Kinomescan method relative to control
[14] = molecular target: Vascular endothelial growth factor receptor 3 (Homo sapiens, UniProt P35916); experiment: Binding affinity to wild-type human partial length FLT4 (E821 to E1196 residues) expressed in bacterial expression system by Kinomescan method relative to control
[15] = molecular target: ALK tyrosine kinase receptor (Homo sapiens, UniProt Q9UM73); experiment: Binding affinity to wild-type human partial length ALK (I1088 to E1409 residues) expressed in mammalian expression system by Kinomescan method relative to control
ALK tyrosine kinase receptor, sequence (Q9UM73 whole entry, the tested form may be a part): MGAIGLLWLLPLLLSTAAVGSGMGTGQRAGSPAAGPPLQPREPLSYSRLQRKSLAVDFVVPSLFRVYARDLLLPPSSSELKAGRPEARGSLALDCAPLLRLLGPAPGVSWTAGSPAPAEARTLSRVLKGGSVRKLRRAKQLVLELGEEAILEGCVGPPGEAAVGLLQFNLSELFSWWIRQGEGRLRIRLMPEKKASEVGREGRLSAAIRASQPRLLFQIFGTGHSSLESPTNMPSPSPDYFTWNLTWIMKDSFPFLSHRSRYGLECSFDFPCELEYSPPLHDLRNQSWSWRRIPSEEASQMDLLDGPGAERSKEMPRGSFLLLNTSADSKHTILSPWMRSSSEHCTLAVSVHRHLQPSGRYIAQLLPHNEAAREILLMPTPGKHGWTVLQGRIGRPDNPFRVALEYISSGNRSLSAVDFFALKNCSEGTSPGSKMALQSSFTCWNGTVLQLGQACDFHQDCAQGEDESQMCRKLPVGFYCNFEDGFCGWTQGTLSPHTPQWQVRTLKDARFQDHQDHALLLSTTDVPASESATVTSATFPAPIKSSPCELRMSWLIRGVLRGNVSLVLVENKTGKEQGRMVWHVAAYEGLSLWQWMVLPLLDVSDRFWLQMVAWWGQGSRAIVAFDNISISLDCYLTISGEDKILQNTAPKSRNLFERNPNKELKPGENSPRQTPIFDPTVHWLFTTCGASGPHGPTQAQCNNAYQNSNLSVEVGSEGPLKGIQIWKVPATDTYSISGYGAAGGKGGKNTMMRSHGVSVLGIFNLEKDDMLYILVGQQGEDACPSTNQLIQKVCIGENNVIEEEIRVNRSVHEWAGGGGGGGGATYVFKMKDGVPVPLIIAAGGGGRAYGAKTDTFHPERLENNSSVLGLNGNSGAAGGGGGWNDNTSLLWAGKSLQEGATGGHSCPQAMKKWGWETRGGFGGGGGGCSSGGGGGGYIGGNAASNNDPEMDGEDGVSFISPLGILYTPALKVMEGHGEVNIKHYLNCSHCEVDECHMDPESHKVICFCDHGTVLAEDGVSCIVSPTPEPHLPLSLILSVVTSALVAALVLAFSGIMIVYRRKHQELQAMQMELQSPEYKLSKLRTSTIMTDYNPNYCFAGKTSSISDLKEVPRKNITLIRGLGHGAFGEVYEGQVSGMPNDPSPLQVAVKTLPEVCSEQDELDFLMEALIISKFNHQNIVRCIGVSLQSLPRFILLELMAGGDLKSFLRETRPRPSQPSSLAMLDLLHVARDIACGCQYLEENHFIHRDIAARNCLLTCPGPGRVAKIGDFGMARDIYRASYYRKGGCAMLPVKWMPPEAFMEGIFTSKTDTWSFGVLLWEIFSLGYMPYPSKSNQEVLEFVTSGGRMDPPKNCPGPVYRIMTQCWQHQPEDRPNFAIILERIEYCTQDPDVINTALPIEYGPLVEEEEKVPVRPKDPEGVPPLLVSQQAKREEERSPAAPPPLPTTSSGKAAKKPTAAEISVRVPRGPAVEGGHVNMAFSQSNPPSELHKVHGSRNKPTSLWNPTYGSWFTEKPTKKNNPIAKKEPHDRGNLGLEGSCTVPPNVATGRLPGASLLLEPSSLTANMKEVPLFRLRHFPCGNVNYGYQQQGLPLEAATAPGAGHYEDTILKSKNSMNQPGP

[16] = molecular target: T1, BDNF/NT-3 growth factors receptor; conditions: BaF3, dose 0.3-200 nM, time 6.0 hrs; remark: listed apart in the source
[17] = molecular target: T1, BDNF/NT-3 growth factors receptor; conditions: BaF3, dose 0.3-200 nM, time 6.0 hrs; remark: listed apart in the source
[18] = molecular target: T2, High affinity nerve growth factor receptor (Homo sapiens, UniProt P04629); experiment: Inhibition of TrkA (unknown origin) in mouse BaF3 cells transfected with wild type CD74-NTK1 assessed as inhibition of ERK expression measured after 6 hrs by Western blot assay; format: cell-based; conditions: dose 0.3-200 nM
T2 sequence (P04629 33-796 limits assumed): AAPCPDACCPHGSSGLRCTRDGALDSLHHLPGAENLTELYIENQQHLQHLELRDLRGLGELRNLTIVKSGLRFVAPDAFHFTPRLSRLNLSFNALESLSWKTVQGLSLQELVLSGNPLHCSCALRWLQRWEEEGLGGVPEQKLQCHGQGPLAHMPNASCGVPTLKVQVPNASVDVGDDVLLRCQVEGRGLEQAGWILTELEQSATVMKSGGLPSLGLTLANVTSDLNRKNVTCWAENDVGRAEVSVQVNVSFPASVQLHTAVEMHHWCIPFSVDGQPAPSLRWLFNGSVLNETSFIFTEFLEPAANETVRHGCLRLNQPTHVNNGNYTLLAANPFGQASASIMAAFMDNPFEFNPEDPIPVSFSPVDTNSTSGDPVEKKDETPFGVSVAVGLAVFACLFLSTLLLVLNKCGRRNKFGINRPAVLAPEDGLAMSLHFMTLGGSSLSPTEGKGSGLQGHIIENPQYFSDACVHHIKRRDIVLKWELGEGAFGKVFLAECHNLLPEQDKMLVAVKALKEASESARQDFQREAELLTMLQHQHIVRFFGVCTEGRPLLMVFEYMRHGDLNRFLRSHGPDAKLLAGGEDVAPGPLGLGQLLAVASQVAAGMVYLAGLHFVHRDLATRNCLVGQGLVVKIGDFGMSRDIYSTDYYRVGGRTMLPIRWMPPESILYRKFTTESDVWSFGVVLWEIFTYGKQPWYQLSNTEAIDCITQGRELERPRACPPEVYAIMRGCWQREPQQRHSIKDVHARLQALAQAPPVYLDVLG

[19] = molecular target: T1, BDNF/NT-3 growth factors receptor; conditions: BaF3, dose 0.3-200 nM, time 6.0 hrs; remark: listed apart in the source
[20] = test system: Proto-oncogene tyrosine-protein kinase receptor Ret (Homo sapiens), P07949 [M918T]; experiment: Binding affinity to RET M918T mutant (unknown origin)
[21] = Cmax in Sprague-Dawley rat at 2 mg/kg, iv measured after 24 hrs by LC-MS/MS analysis; format: ADME, organism-based; design: route intravenous, time 24 hrs, dose 2 mg/kg; conditions: in vivo
[22] = molecular target: T2, High affinity nerve growth factor receptor; experiment: Inhibition of TrkA (unknown origin) in mouse BaF3 cells transfected with wild type CD74-NTK1 assessed as inhibition of PLCgamma 1 expression measured after 6 hrs by Western blot assay; format: cell-based
[23] = molecular target: Receptor-type tyrosine-protein kinase FLT3 (Homo sapiens, UniProt P36888); experiment: Binding affinity to wild-type human partial length FLT3 (V592 to Y969 residues) expressed in bacterial expression system by Kinomescan method relative to control
[24] = test system: Proto-oncogene tyrosine-protein kinase receptor Ret (Homo sapiens), P07949 [V804L]; experiment: Binding affinity to RET V804L mutant (unknown origin)
[25] = Clearance in Sprague-Dawley rat at 2 mg/kg, iv measured after 24 hrs by LC-MS/MS analysis; format: ADME, organism-based; conditions: in vivo
[26] = Half life in Sprague-Dawley rat at 2 mg/kg, iv measured after 24 hrs by LC-MS/MS analysis; format: ADME, organism-based; conditions: in vivo
[27] = molecular target: T2, High affinity nerve growth factor receptor; experiment: Inhibition of TrkA (unknown origin) in mouse BaF3 cells transfected with wild type […] assessed as inhibition of PLCgamma 1 phosphorylation measured after 6 hrs by Western blot assay; format: cell-based; conditions: dose 0.3-200 nM
[28] = molecular target: Muscle, skeletal receptor tyrosine-protein kinase (Homo sapiens, UniProt O15146); experiment: Binding affinity to wild-type human partial length MUSK (M553 to V869 residues) expressed in bacterial expression system by Kinomescan method relative to control
[29] = molecular target: Proto-oncogene tyrosine-protein kinase ROS (Homo sapiens, UniProt P08922); experiment: Binding affinity to wild-type human partial length ROS1 (A1921 to N2240 residues) expressed in bacterial expression system by Kinomescan method relative to control
[30] = molecular target: Tyrosine-protein kinase JAK1 (Homo sapiens, UniProt P23458); experiment: Binding affinity to wild-type human partial length JAK1 JH1 catalytic domain (V856 to K1154 residues) expressed in bacterial expression system by Kinomescan method relative to control
Tyrosine-protein kinase JAK1, sequence (P23458 whole entry, the tested form may be a part): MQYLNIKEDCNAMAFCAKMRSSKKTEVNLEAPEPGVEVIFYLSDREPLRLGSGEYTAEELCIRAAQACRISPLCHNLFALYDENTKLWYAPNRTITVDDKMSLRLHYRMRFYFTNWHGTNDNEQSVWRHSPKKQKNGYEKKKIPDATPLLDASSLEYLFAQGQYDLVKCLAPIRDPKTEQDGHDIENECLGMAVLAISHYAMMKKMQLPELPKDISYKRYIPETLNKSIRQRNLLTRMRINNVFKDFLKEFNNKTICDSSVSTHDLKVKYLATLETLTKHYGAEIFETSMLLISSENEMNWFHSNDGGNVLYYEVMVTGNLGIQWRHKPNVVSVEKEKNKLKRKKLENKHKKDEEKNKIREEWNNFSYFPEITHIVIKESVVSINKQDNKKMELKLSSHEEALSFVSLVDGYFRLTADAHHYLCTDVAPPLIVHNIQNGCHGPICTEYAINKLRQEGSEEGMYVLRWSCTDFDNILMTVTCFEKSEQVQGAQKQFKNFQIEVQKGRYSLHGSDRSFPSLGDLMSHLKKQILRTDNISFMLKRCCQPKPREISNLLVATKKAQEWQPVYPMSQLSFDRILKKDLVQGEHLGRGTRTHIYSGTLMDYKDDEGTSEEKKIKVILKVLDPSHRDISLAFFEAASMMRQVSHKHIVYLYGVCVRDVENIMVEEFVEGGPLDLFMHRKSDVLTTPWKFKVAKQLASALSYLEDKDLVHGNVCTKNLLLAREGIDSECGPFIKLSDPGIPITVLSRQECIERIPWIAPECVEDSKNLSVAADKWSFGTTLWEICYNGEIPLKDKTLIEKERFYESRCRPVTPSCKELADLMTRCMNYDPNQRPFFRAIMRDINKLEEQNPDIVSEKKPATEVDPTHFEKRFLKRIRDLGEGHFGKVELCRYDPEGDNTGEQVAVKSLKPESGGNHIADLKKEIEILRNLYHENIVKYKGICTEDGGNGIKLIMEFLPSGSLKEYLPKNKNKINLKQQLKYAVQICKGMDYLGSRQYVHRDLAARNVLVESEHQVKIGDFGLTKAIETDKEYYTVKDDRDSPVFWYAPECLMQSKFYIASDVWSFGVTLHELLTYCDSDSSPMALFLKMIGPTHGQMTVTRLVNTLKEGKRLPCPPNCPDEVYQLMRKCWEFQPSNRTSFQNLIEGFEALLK

[31] = Cmax in Sprague-Dawley rat at 10 mg/kg, po measured after 24 hrs by LC-MS/MS analysis; format: ADME, organism-based; design: route oral, dose 10 mg/kg, time 24 hrs; conditions: in vivo
[32] = molecular target: T2, High affinity nerve growth factor receptor; experiment: Inhibition of TrkA (unknown origin) in mouse BaF3 cells transfected with wild type CD74-NTK1 assessed as inhibition of AKT expression measured after 6 hrs by Western blot assay; format: cell-based; conditions: dose 0.3-200 nM
BaF3 [33] = experiment: Antiproliferative activity against mouse BaF3 cells transfected with wild type CD74-NTRK1 (unknown origin) harbouring G667C mutation assessed as cell viability measured after 72 hrs by Micro plate reader method; format: functional, cell-based; conditions: BaF3, 72 h
[34] = molecular target: T1, BDNF/NT-3 growth factors receptor; conditions: BaF3, dose 0.3-200 nM, time 6.0 hrs; remark: listed apart in the source
BaF3 [35] = experiment: Antiproliferative activity against mouse BaF3 cells transfected with wild type CD74-NTRK1 (unknown origin) assessed as cell viability measured after 72 hrs by Micro plate reader method; conditions: BaF3, 72 h

- Kd [1]: 12 nM
- AUC(0-inf) [2]: 1.62 µM·h
- inhibition [3]: Active
- IC50 (BaF3 [4]): 503 nM
- IC50 (BaF3 [5]): 22 nM
- inhibition [6]: Active
- Kd [7]: 76 nM
- half-life [8]: 1.13 h
- inhibition [9]: Active
- Kd [10]: 140 nM
- Kd (Aurora kinase C): 570 nM
- IC50 (BaF3 [11]): 3120 nM
- inhibition [12]: Active
- Kd [13]: 170 nM
- Kd [14]: 45 nM
- Kd [15]: 150 nM
- inhibition [16]: Active
- inhibition [17]: Active
- inhibition [18]: Active
- inhibition [19]: Active
- inhibition [20]: Active
- Cmax [21]: 6.77 µM
- inhibition [22]: Active
- Kd [23]: 190 nM
- inhibition [24]: Active
- clearance [25]: 24 mL/min/kg
- half-life [26]: 1.39 h
- inhibition [27]: Active
- Kd [28]: 110 nM
- Kd [29]: 13 nM
- Kd [30]: 130 nM
- Cmax [31]: 0.36 µM
- inhibition [32]: Active
- IC50 (BaF3 [33]): 31 nM
- inhibition [34]: Active
- IC50 (BaF3 [35]): 15 nM
SMILES: C[C@@H](Nc1ccc2[nH]nc(/C=C/c3ccccn3)c2c1)c1cc(F)cc(F)c1
